{"source": "patent US20200397796A1", "about": "“METHODS OF TREATMENT OF CANCER COMPRISING CHK1 INHIBITORS” (SIERRA ONCOLOGY, INC., priority 2018, published 2020)", "key": {"[1]": {"tested_on": "OVCAR3 model of HGSOC", "test": "In vivo efficacy, OVCAR3 CDX model", "parameters": "species or system mouse", "details": "data not shown", "description": "(§1) A program of in vivo efficacy studies was performed to assess the activity of SRA737 in combination with genotoxic chemotherapy and targeted agents, and as monotherapy.\n(§2) One of these models also carried a MYCN amplification. A fourth HGSOC PDX model with partial resistance to PARPi was also sensitive to high dose SRA737 monotherapy."}, "[2]": {"molecular_target": "CYP 2A6 (Homo sapiens, UniProt P11509)", "sequence (P11509 whole entry)": "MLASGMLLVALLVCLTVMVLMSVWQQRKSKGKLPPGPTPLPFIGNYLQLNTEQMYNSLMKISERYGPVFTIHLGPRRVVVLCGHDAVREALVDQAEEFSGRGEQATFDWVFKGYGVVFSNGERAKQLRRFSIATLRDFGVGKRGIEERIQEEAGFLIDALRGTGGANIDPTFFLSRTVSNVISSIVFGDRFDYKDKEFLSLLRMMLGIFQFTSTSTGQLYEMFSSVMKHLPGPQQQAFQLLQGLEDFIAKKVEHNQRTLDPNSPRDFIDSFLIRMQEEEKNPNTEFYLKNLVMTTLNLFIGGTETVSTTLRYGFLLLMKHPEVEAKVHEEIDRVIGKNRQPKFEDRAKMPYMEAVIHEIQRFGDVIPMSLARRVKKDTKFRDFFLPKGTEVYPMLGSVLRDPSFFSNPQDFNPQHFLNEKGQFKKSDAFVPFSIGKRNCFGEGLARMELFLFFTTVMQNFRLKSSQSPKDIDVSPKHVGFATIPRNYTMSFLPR", "test": "CYP inhibition, 2A6", "format": "in vitro ADME", "details": "highest concentration investigated"}, "[3]": {"test": "Plasma protein binding, ultracentrifugation, minipig", "format": "in vitro ADME", "details": "for Percentage Bound / Percentage Free: Minipig plasma", "description": "(§3) The PK of SRA737 have been determined in the mouse, rat, dog and monkey following oral and IV administration (Table 3). […] An acceptable terminal elimination t1/2 was also observed in each species. […] The plasma protein binding of SRA737 at 1 and 10 μM was examined in mouse, minipig, monkey and human plasma using ultracentrifugation and in dog plasma (10 μM) using rapid equilibrium dialysis."}, "[4]": {"tested_on": "Renca (renal cancer)", "test": "In vivo efficacy, Renca syngeneic model", "parameters": "species or system mouse", "details": "data not shown", "description": "as §1, §2"}, "[5]": {"tested_on": "CHK1 S296 autophosphorylation", "test": "Gemcitabine induced CHK1 S296 autophosphorylation in HT29 tumor xenografts (western blotting)", "format": "in vivo, mouse", "details": "oral, 24 hours following gemcitabine 100 mg/kg IV", "description": "(§4) The effect of SRA737 on Gemcitabine induced CHK1 S296 autophosphorylation was assessed as described in Walton et al. (Oncotarget. 2016 Jan. 19; 7(3): 2329-2342), herein incorporated by reference for all it teaches. Briefly, mice bearing HT29 tumor xenografts were administered (i) vehicle control or (ii) gemcitabine (100 mg/kg in saline, IV) or (iii) a combination of SRA737 (12.5, 25, 50 or 100 mg/kg in DTPW, oral) and gemcitabine (100 mg/kg) with SRA737 administered 24 hours following gemcitabine administration (n=3 per time point per treatment). […] Exposure in the tumor was greater than 10-fold higher than in plasma. The circulating plasma concentration at this 24-hour timepoint corresponded to a free drug concentration of approximately 6 nM (2 ng/mL) based on plasma protein binding in mice of 94%."}, "[6]": {"test": "GLP 28-day repeat oral dose toxicity and toxicokinetics, mouse"}, "[7]": {"tested_on": "SJSA-1 human osteosarcoma", "test": "In vivo efficacy, SJSA-1 xenograft model", "parameters": "species or system mouse", "details": "data not shown", "description": "as §1, §2"}, "[8]": {"tested_on": "MOLM-13 model of AML", "test": "In vivo efficacy, MOLM-13 model", "parameters": "species or system mouse", "details": "data not shown", "description": "as §1, §2"}, "[9]": {"tested_on": "cryopreserved hepatocytes", "test": "Rank order of stability in cryopreserved hepatocytes across species", "format": "in vitro ADME, human, mouse, rat, dog, minipig and monkey", "details": "10 μM, up to 4 hours", "description": "The formation of SRA737-related metabolites was determined in cryopreserved hepatocytes from human, mouse, rat, dog, minipig and monkey samples after incubation with SRA737 at a nominal concentration of 10 μM for up to 4 hours. […] In the human hepatocyte preparation, approximately 67% of the parent remained after 4 hours of incubation compared to 75% and 7% in the rat and minipig preparations, respectively. Eight human SRA737 metabolites were observed. All SRA737 metabolites formed by human hepatocytes were also formed by monkey hepatocytes. Six metabolites were present at equal or greater abundance in the monkey."}, "[10]": {"test": "Plasma protein binding, ultracentrifugation, human", "format": "in vitro ADME", "details": "for Percentage Bound / Percentage Free: Human plasma", "description": "as §3"}, "[11]": {"tested_on": "MDA-MB-231 model of TNBC", "test": "In vivo efficacy, MDA-MB-231 model", "parameters": "species or system mouse", "details": "data not shown", "description": "as §1, §2"}, "[12]": {"test": "SRA737 plasma and tumor concentrations in HT29 xenograft model", "format": "in vivo, mouse", "parameters": "Tumor (6 h) concentration / Tumor (24 h) concentration: unit not given here", "details": "for concentration at 6 h / concentration at 24 h: plasma", "description": "For each dose, columns from left to right are concentrations for plasma at 6 hours, plasma at 24 hours, tumor at 6 hours, and tumor at 24 hours, respectively.\nas §4, with “([…])” for “(12.5, 25, 50 or 100 mg/kg in DTPW, oral)”"}, "[13]": {"details": "female, mouse, in vivo, po, 10 mg/kg/day"}, "[14]": {"details": "female, mouse, in vivo, po, 40 mg/kg/day"}, "[15]": {"details": "female, mouse, in vivo, po, 75 mg/kg/day"}, "[16]": {"details": "male, mouse, in vivo, po, 10 mg/kg/day"}, "[17]": {"details": "male, mouse, in vivo, po, 40 mg/kg/day"}, "[18]": {"details": "male, mouse, in vivo, po, 75 mg/kg/day"}}, "note": "Several values for one entry are separate records, joined by “and”; a condition that tells them apart may be missing. Identical values can stand only once. Like-named read-outs stand apart in the source and are kept apart here.", "data": [{"smiles": "N#Cc1cnc(Nc2cc(NCC3CNCCO3)c(C(F)(F)F)cn2)cn1", "note": "(stereo not drawn) [SRA737, 5-[[4-[[morpholin-2-yl]methylamino]-5-(trifluoromethyl)-2-pyridyl]amino]pyrazine-2-carbonitrile]", "values": [{"measurement": "single agent efficacy", "setting": "[1]; single agent", "value": "single agent efficacy"}, {"measurement": "synergy", "setting": "[1]; with low-dose gemcitabine", "value": "Synergy"}, {"measurement": "IC50", "setting": "[2]", "value": "10 to 50", "unit": "µM"}, {"measurement": "Percentage Bound", "setting": "[3]; 1 μM", "value": 85.2, "unit": "%"}, {"measurement": "Percentage Free", "setting": "[3]; 1 μM", "value": 14.9, "unit": "%"}, {"measurement": "Percentage Bound", "setting": "[3]; 10 μM", "value": 75.5, "unit": "%"}, {"measurement": "Percentage Free", "setting": "[3]; 10 μM", "value": 24.5, "unit": "%"}, {"measurement": "fraction unbound", "setting": "[3]; plasma, minipig, summary of 1 and 10 μM", "value": "~0.2"}, {"measurement": "single agent efficacy", "setting": "[4]", "value": "single agent efficacy"}, {"measurement": "SRA737 doses at which inhibition of pS296 Chk1 was observed", "setting": "[5]", "value": "greater than or equal to 12.5 mg/kg"}, {"measurement": "AUC(0-t)", "setting": "[6]; [13]", "value": 3610, "unit": "ng·h/mL"}, {"measurement": "Cmax", "setting": "[6]; [13]", "value": 918, "unit": "ng/mL"}, {"measurement": "half-life", "setting": "[6]; [13]", "value": 5.18, "unit": "h"}, {"measurement": "AUC(0-t)", "setting": "[6]; [14]", "value": 24800, "unit": "ng·h/mL"}, {"measurement": "Cmax at 28 days", "setting": "[6]; [14]", "value": 2350, "unit": "ng/mL"}, {"measurement": "half-life", "setting": "[6]; [14]", "value": 5.09, "unit": "h"}, {"measurement": "AUC(0-t)", "setting": "[6]; [15]", "value": 45500, "unit": "ng·h/mL"}, {"measurement": "Cmax", "setting": "[6]; [15]", "value": 4030, "unit": "ng/mL"}, {"measurement": "half-life", "setting": "[6]; [15]", "value": 6.96, "unit": "h"}, {"measurement": "AUC(0-t)", "setting": "[6]; [16]", "value": 4410, "unit": "ng·h/mL"}, {"measurement": "Cmax", "setting": "[6]; [16]", "value": 903, "unit": "ng/mL"}, {"measurement": "AUC(0-t)", "setting": "[6]; [17]", "value": 34300, "unit": "ng·h/mL"}, {"measurement": "Cmax at 28 days", "setting": "[6]; [17]", "value": 3250, "unit": "ng/mL"}, {"measurement": "half-life", "setting": "[6]; [17]", "value": 6.22, "unit": "h"}, {"measurement": "AUC(0-t)", "setting": "[6]; [18]", "value": 68600, "unit": "ng·h/mL"}, {"measurement": "Cmax", "setting": "[6]; [18]", "value": 5450, "unit": "ng/mL"}, {"measurement": "half-life", "setting": "[6]; [18]", "value": 8.36, "unit": "h"}, {"measurement": "toxicological findings", "setting": "[6]; mouse pivotal study, dose-dependent, reversible on cessation", "value": "bone marrow toxicity"}, {"measurement": "MTD at 28 days", "setting": "[6]; mouse, in vivo, po", "value": 75, "unit": "mg/kg/day"}, {"measurement": "antitumor activity", "setting": "[7]; in combination with standard-dose gemcitabine", "value": "Significant, dose-dependent antitumor activity"}, {"measurement": "synergy", "setting": "[7]; with low-dose gemcitabine", "value": "Synergy"}, {"measurement": "single agent efficacy", "setting": "[8]", "value": "single agent efficacy"}, {"measurement": "rank order of stability from most stable to least stable", "setting": "[9]", "value": "rat≈mouse>monkey≈human>>dog>>minipig"}, {"measurement": "Percentage Bound", "setting": "[10]; 1 μM", "value": 87.7, "unit": "%"}, {"measurement": "Percentage Free", "setting": "[10]; 1 μM", "value": 12.4, "unit": "%"}, {"measurement": "Percentage Bound", "setting": "[10]; 10 μM", "value": 87.2, "unit": "%"}, {"measurement": "Percentage Free", "setting": "[10]; 10 μM", "value": 12.8, "unit": "%"}, {"measurement": "fraction unbound", "setting": "[10]; human, plasma, humans, summary of 1 and 10 μM", "value": "~0.13"}, {"measurement": "single agent efficacy", "setting": "[11]", "value": "single agent efficacy"}, {"measurement": "Tumor (6 h) concentration", "setting": "[12]; 3.125 mg/kg", "value": 3183.276}, {"measurement": "Tumor (24 h) concentration", "setting": "[12]; 3.125 mg/kg", "value": 645.7623}, {"measurement": "Tumor (6 h) concentration", "setting": "[12]; 6.25 mg/kg", "value": 4011.501}, {"measurement": "Tumor (24 h) concentration", "setting": "[12]; 6.25 mg/kg", "value": 965.7797}, {"measurement": "Tumor (6 h) concentration", "setting": "[12]; 12.5 mg/kg", "value": 19009.57}, {"measurement": "Tumor (24 h) concentration", "setting": "[12]; 12.5 mg/kg", "value": 3974.933}, {"measurement": "Tumor (6 h) concentration", "setting": "[12]; 25 mg/kg", "value": 37516}, {"measurement": "Tumor (24 h) concentration", "setting": "[12]; 25 mg/kg", "value": 16289.53}, {"measurement": "Tumor (6 h) concentration", "setting": "[12]; 50 mg/kg", "value": 76331.2}, {"measurement": "Tumor (24 h) concentration", "setting": "[12]; 50 mg/kg", "value": 27483.73}, {"measurement": "Tumor (6 h) concentration", "setting": "[12]; 100 mg/kg", "value": 131506.7}, {"measurement": "Tumor (24 h) concentration", "setting": "[12]; 100 mg/kg", "value": 101764.1}, {"measurement": "concentration at 6 h", "setting": "[12]; mouse, oral, 3.125 mg/kg", "value": 194, "unit": "nM"}, {"measurement": "concentration at 24 h", "setting": "[12]; mouse, oral, 3.125 mg/kg, read-out: Plasma (24 h) concentration", "value": 0, "unit": "nM"}, {"measurement": "concentration at 6 h", "setting": "[12]; mouse, oral, 6.25 mg/kg", "value": 323, "unit": "nM"}, {"measurement": "concentration at 24 h", "setting": "[12]; mouse, oral, 6.25 mg/kg, read-out: Plasma (24 h) concentration", "value": 13.1, "unit": "nM"}, {"measurement": "concentration at 24 h", "setting": "[12]; mouse, oral, 12.5 mg/kg, 24-hour timepoint, based on plasma protein binding in mice of 94%, read-out: free drug concentration in plasma", "value": "~6 nM and ~2 ng/mL"}, {"measurement": "concentration at 24 h", "setting": "[12]; mouse, oral, 12.5 mg/kg, at 24 hours, approximate, read-out: minimum (total) plasma concentration corresponding to inhibition of pS296 Chk1", "value": "~100", "unit": "nM"}, {"measurement": "concentration at 24 h", "setting": "[12]; mouse, oral, 12.5 mg/kg, at 24 hours, read-out: minimum (total) plasma concentration corresponding to inhibition of pS296 Chk1", "value": "~40", "unit": "ng/mL"}, {"measurement": "concentration at 24 h", "setting": "[12]; mouse, oral, 12.5 mg/kg, read-out: Plasma (24 h) concentration", "value": "78 ± 27", "unit": "nM"}, {"measurement": "Kp", "setting": "[12]; mouse, tumor, oral, HT29 xenograft mice, read-out: exposure in the tumor relative to plasma", "value": "> 10"}]}]}
